Measurements: PMC5845353, “The selective cathepsin K inhibitor MIV-711 attenuates joint pathology in experimental animal models of osteoarthritis” (Journal of Translational Medicine, 2018)
pKi: −log10 of the molar value. Marks after values point to notes of the source that are not given here.

How the values were obtained:
[1] = biological target: rabbit cathepsin K enzyme; set-up: method as in PMID 29743078; details: read-out: Ki against rabbit cathepsin K enzyme; cited from earlier work
[2] = tested on: Knee OA patients; details: once daily treatment for 6 months; cited from earlier work
[3] = tested on: rabbits subjected to anterior cruciate ligament transection (ACLT); assay: Rabbit ACLT study, µCT of subchondral bone plate; type: in vivo
Excerpt: The animals were acquired following review and approval by the Institutional Animal Care and Use Committee (IACUC) at Numira (Salt Lake City, UT). The protocol was also reviewed and approved by the IACUC at Ibex Preclinical Research Inc. (Logan, UT). Male, New Zealand White rabbits (n = 32) were purchased from the Western Oregon Rabbit Co. (Philomath, OR). The animals were approximately 9 months old, weighed 3.7–4.5 kg at the start of the experiment and were randomized into four treatment groups based on body weight.
Pre-operative butorphanol (0.5–1.0 mg/kg, i.m.) for analgesia and glycopyrrolate (~ 0.1 mg/kg i.m.) were administered up to 15 min prior to induction. Anesthesia was induced by a mixture of ketamine (20–40 mg/kg, i.m.) and xylazine (5–10 mg/kg, i.m.), followed by placement of an endotracheal tube. General anesthesia was maintained with isoflurane. Perioperative cefazolin (40 mg/kg, i.v.) was administered, and […] (0.2 mg/kg, i.v.) was administered to reverse the effects of xylazine after endotracheal intubation was complete. A fentanyl patch (25 µg/h) was placed on a clipped area of the skin to provide post-operative analgesia. An incision of 1.5–2.5 cm was made in the skin over the medial side of the right knee under aseptic conditions. The patella was dislocated laterally and the knee placed in full flexion. The anterior cruciate ligament (ACL) was visualized and transected with an appropriate blade. In sham animals, the ACL was visualized but not transected. The joint was irrigated with sterile saline and closed. The muscle and skin were closed with suture and/or surgical glue. Butorphanol (0.5–1 mg/kg, i.m.) was administered after extubation to provide supplemental analgesia. The animals were then individually housed in stainless steel or plastic cages.
Starting 1 week after sham operation or ACLT, animals were dosed daily for 7 weeks by oral gavage with either MIV-711 (synthesized by Medivir and given as a suspension in 1% Methocel A4C in water) or vehicle (1% Methocel A4C in water) at a dose volume of 4 mL/kg. The four treatment groups (n = 7 in each group) were: (1) sham + vehicle; (2) ACLT + vehicle; (3) ACLT + MIV-711, 30 µmol/kg (low dose) and (4) ACLT + MIV-711, 100 µmol/kg (high dose).
Femora and tibias from all animals were subjected to µCT scanning without and with contrast reagent, to visualize bone and cartilage, respectively. Samples were scanned on a high-resolution, volumetric µCT scanner (μCT40, ScanCo Medical, Zurich, CH). The image data was acquired with the following parameters: 36 μm isotropic voxel resolution at 300 ms exposure time, 2000 views and 1 frame per view. Each sample was scanned twice, once for acquiring bone data and once for soft tissue data. After the bone scans, the knees were stained using hexabrix for contrast-enhanced imaging of the cartilage. The µCT-generated DICOM files were used to analyze the samples and to create volume renderings of the regions of interest (ROI). The raw data files were converted into a file format compatible with the segmentation software VHLab (Numira). VHLab was used for segmenting out the regions of interest (osteophyte, cartilage, and subchondral bone) for the femur and tibia of each sample. A region spanning 9 mm of the articulating surface of the femur and 6.5 mm of the tibia was selected for segmenting out the cartilage and subchondral bone in the anterior–posterior direction. After the segmentation process, the voxel count associated with each of the regions of interest was calculated using VHLab. The voxel count was then multiplied by the cubic voxel resolution to obtain volume measurements for the different ROI. Cartilage thickness was calculated using SCIRun (Scientific Computing and Imaging Institute, University of Utah). The distance from the bone to the outer surface of the articulating cartilage was calculated. An image was generated that translates the distances into a color map for viewing the thickness along the length of the cartilage. […]

C#C[C@@H]1CN(C(=O)[C@H](CC(C)C)NC(=O)c2ccc(-c3nc(N4CCN(C)CC4)sc3F)cc2)[C@@H]2C(=O)CO[C@H]12 [MIV-711]
pKi [1]: 8.48
benefit on joint structure by MRI compared to placebo [2]: significantly lower increases in bone area and cartilage thinning
Subchondral bone plate Thickness, Lateral ([3]; Femur, high dose 100 µmol/kg): 321 ± 11 µm
Subchondral bone plate Thickness, Medial ([3]; Femur, high dose 100 µmol/kg): 388 ± 9 µm
Subchondral bone plate Thickness, Total ([3]; Femur, high dose 100 µmol/kg): 353 ± 8 µm
Subchondral bone plate Volume, Lateral ([3]; Femur, high dose 100 µmol/kg): 25.7 ± 1.2* mm^3
Subchondral bone plate Volume, Medial ([3]; Femur, high dose 100 µmol/kg): 29.9 ± 1.0 mm^3
Subchondral bone plate Volume, Total ([3]; Femur, high dose 100 µmol/kg): 55.6 ± 2.0* mm^3
Subchondral bone plate Thickness, Lateral ([3]; Femur, low dose 30 µmol/kg): 316 ± 10 µm
Subchondral bone plate Thickness, Medial ([3]; Femur, low dose 30 µmol/kg): 380 ± 13 µm
Subchondral bone plate Thickness, Total ([3]; Femur, low dose 30 µmol/kg): 347 ± 10 µm
Subchondral bone plate Volume, Lateral ([3]; Femur, low dose 30 µmol/kg): 25.0 ± 0.6* mm^3
Subchondral bone plate Volume, Medial ([3]; Femur, low dose 30 µmol/kg): 29.4 ± 0.8 mm^3
Subchondral bone plate Volume, Total ([3]; Femur, low dose 30 µmol/kg): 54.4 ± 0.8* mm^3
Subchondral bone plate Thickness, Lateral ([3]; Tibia, high dose 100 µmol/kg): 353 ± 12 µm
Subchondral bone plate Thickness, Medial ([3]; Tibia, high dose 100 µmol/kg): 462 ± 13 µm
Subchondral bone plate Thickness, Total ([3]; Tibia, high dose 100 µmol/kg): 401 ± 8 µm
Subchondral bone plate Volume, Lateral ([3]; Tibia, high dose 100 µmol/kg): 20.7 ± 1.0* mm^3
Subchondral bone plate Volume, Medial ([3]; Tibia, high dose 100 µmol/kg): 20.6 ± 0.5 mm^3
Subchondral bone plate Volume, Total ([3]; Tibia, high dose 100 µmol/kg): 41.2 ± 0.9* mm^3
Subchondral bone plate Thickness, Lateral ([3]; Tibia, low dose 30 µmol/kg): 326 ± 18 µm
Subchondral bone plate Thickness, Medial ([3]; Tibia, low dose 30 µmol/kg): 452 ± 15 µm
Subchondral bone plate Thickness, Total ([3]; Tibia, low dose 30 µmol/kg): 383 ± 15 µm
Subchondral bone plate Volume, Lateral ([3]; Tibia, low dose 30 µmol/kg): 18.5 ± 1.3* mm^3
Subchondral bone plate Volume, Medial ([3]; Tibia, low dose 30 µmol/kg): 20.6 ± 0.8 mm^3
Subchondral bone plate Volume, Total ([3]; Tibia, low dose 30 µmol/kg): 39.1 ± 2.0* mm^3
femur subchondral bone plate total thickness, difference vs. sham ([3]; low dose 30 µmol/kg): 0%
tibia subchondral bone plate total thickness, difference vs. sham ([3]; low dose 30 µmol/kg): 0%
